Measured values taken from patent US11246893B2, “Bacteriocin production, compositions and methods of use” (ISOThrive Inc., priority 2016, dated 2022).

How the values were obtained:
[1] = precipitation noted in proliferation assay (FIG. 9E); assay type: physicochemical
Procedure: As illustrated, nisins can have some uncommon amino acids such as lanthionine (Lan), methyllanthionine (MeLan), didehydroalanine (Dha), and didehydroaminobutyric acid (Dhb). FIG. 9E graphically illustrates inhibition of HCT-15 and DLD-1 colorectal cancer cell proliferation and IC50 values obtained for nisins A and Z. The plot is representative of four triplicate tests including two each for HCT-15 and DLD-1 cells. Note that Nisin A began to precipitate at concentrations >400 μg/mL.

[2] = system: Weissella viridescens NRRL B-1951; assay: tube assay, W. viridescens growth with nisin A or Z (absorbance); assay type: cell-based
Procedure: 100 g De-Man, Rogosa and Sharpe (MRS) media was prepared in a 500 mL Erlenmeyer to contain 5.5% solids in deionized water (18.2 MΩ, Hydro Service and Supplies. Gaithersburg, Md.). The media was autoclaved (121° C. 15 min), cooled, and inoculated with 1 mL (0.5 mL culture+0.5 mL glycerol, 40%; frozen at −78° C.) of Weissella viridescens NRRL B-1951 (test strain). The culture was incubated at 31° C. overnight (15 Hr).
The next day, stock solutions of either nisin A or Z were prepared in deionized water to contain 31.3 and 33.7 μg/g of each peptide.
100 g MRS media was prepared to contain 5.5% solids. Two sets (one set each for nisin A and nisin Z) of eight Hach-type tubes (Kimble Chase 45066-16100) were prepared. Within each set, in order was added 5.00, 4.95, 4.90, 4.75, 4.50, 4.00, 3.50 and 3.00 g MRS media. The tubes were sealed and autoclaved.
To each tube was added, of the appropriate nisin stock, 0.00, 0.05, 0.10, 0.25, 0.50, 1.00, 1.50, and 2.00 g. Each tube was inoculated with 0.25 g of late-log W. viridescens NRRL B-1951 culture. The tubes were sealed and the absorbance at 600 nm was quickly measured (Hach DR900). The tubes were segregated by set and incubated at 31° C. overnight (15 Hr).
Each tube was thoroughly mixed to suspend settled cells and the absorbance was measured again at 600 nm. The final absorbance values for each sample were corrected for their respective background (taken just after inoculation, scattered light from added cells). The corrected absorption values were a measure of W. viridescens growth.
As indicated above, the absorbance of the culture was measured again at 600 nm as a measure of W. viridescens growth, and the absorbance values for each sample were corrected for their respective background. These corrected absorption values plotted against nisin concentration and minimum inhibiting concentration approximated via regression.
The results were fit via four parameter logistic regression (4PLR), combined into a continuous function with a second assay set (0.65-9.99 μg/g), and are shown in FIG. 11A.

[3] = system: Weissella viridescens NRRL B-1951; assay: HPLC of tube supernatants: glucose consumption and organic acid production; assay type: cell-based; conditions: for acetic acid in fermentation media: MRS media originally contained 7% acetate
Procedure: Each tube was sampled (1.5 mL conical polypropylene centrifuge tubes) and centrifuged at 10 kRPM for 10 minutes to remove and suspended cells. The resulting supernatants were filtered (0.2 μm nylon), diluted to 0.5% solids, and analyzed by high pressure liquid chromatography (HPLC, Agilent 1100, refractive index detector and BioRad Ainex HPX-87H column) for consumption of glucose and production of organic acids.
Note that the MRS media originally contained 7% acetate; therefore 7% should be subtracted from the values for acetate in Table 8 to ascertain the amount of acetate generated during the assay.

head/neck tumors = conditions: mouse, in vivo; cited from earlier work
[4] = tube A2, nisin A 0.33 μg/g, 15 Hr
[5] = tube A3, nisin A 0.68 μg/g, 15 Hr
[6] = tube A4, nisin A 1.38 μg/g, 15 Hr
[7] = tube A5, nisin A 3.08 μg/g, 15 Hr
[8] = tube A6, nisin A 5.97 μg/g, 15 Hr
[9] = tube A7, nisin A 8.86 μg/g, 15 Hr
[10] = tube A8, nisin A 11.87 μg/g, 15 Hr
[11] = tube Z2, nisin Z 0.34 μg/g, 15 Hr
[12] = tube Z3, nisin Z 0.77 μg/g, 15 Hr
[13] = tube Z4, nisin Z 1.58 μg/g, 15 Hr
[14] = tube Z5, nisin Z 3.19 μg/g, 15 Hr
[15] = tube Z6, nisin Z 6.31 μg/g, 15 Hr
[16] = tube Z7, nisin Z 9.54 μg/g, 15 Hr
[17] = tube Z8, nisin Z 12.61 μg/g, 15 Hr

## MSTKDFNLDLVSVSKKDSGASPRITSISLCTPGCKTGALMGCNMKTATCHCSIHVSK [nisin A]
[1]
  concentration at which precipitation began: > 400 µg/mL
[2]
  MIC, separate experiment: about 2.5 μg/g
[2]; 15 Hr, 31° C.
  minimal inhibitory concentration estimated from graphs: 5 to 7 µg/g
[2]; [4]
  91516 ABS 610f: 1.568
  Corrected ABS 610rs: 1.106
[2]; [5]
  91516 ABS 610f: 1.531
  Corrected ABS 610rs: 1.063
[2]; [6]
  91516 ABS 610f: 1.334
  Corrected ABS 610rs: 0.868
[2]; [7]
  91516 ABS 610f: 0.911
  Corrected ABS 610rs: 0.473
[2]; [8]
  91516 ABS 610f: 0.536
  Corrected ABS 610rs: 0.116
[2]; [9]
  91516 ABS 610f: 0.403
  Corrected ABS 610rs: 0.001
[2]; [10]
  91516 ABS 610f: 0.361
  Corrected ABS 610rs: 0.001
[3]; tube A2, nisin A 0.33 μg/g
  Maltotriose in fermentation media: 0.312 %/brix
  ethanol in fermentation media: 0.068 %/brix
  formic acid in fermentation media: 0.263 %/brix
  fructose in fermentation media: 0.000 %/brix
  glucose in fermentation media: 23.122 %/brix
  glycerol in fermentation media: 0.292 %/brix
  lactic acid in fermentation media: 6.884 %/brix
  maltose in fermentation media: 0.581 %/brix
  acetic acid in fermentation media: 7.967 %/brix
[3]; tube A4, nisin A 1.38 μg/g
  Maltotriose in fermentation media: 0.298 %/brix
  ethanol in fermentation media: 0.062 %/brix
  formic acid in fermentation media: 0.282 %/brix
  fructose in fermentation media: 0.000 %/brix
  glucose in fermentation media: 24.138 %/brix
  glycerol in fermentation media: 0.319 %/brix
  lactic acid in fermentation media: 5.496 %/brix
  maltose in fermentation media: 0.815 %/brix
  acetic acid in fermentation media: 8.219 %/brix
[3]; tube A5, nisin A 3.08 μg/g
  Maltotriose in fermentation media: 0.276 %/brix
  ethanol in fermentation media: 0.094 %/brix
  formic acid in fermentation media: 0.407 %/brix
  fructose in fermentation media: 0.000 %/brix
  glucose in fermentation media: 24.698 %/brix
  glycerol in fermentation media: 0.350 %/brix
  lactic acid in fermentation media: 4.672 %/brix
  maltose in fermentation media: 0.598 %/brix
  acetic acid in fermentation media: 8.296 %/brix
[3]; tube A6, nisin A 5.97 μg/g
  Maltotriose in fermentation media: 0.288 %/brix
  ethanol in fermentation media: 0.057 %/brix
  formic acid in fermentation media: 0.280 %/brix
  fructose in fermentation media: 0.000 %/brix
  glucose in fermentation media: 25.304 %/brix
  glycerol in fermentation media: 0.328 %/brix
  lactic acid in fermentation media: 2.707 %/brix
  maltose in fermentation media: 0.941 %/brix
  acetic acid in fermentation media: 8.143 %/brix
[3]; tube A7, nisin A 8.86 μg/g
  Maltotriose in fermentation media: 0.419 %/brix
  ethanol in fermentation media: 0.055 %/brix
  formic acid in fermentation media: 0.234 %/brix
  fructose in fermentation media: 0.000 %/brix
  glucose in fermentation media: 25.444 %/brix
  glycerol in fermentation media: 0.299 %/brix
  lactic acid in fermentation media: 1.521 %/brix
  maltose in fermentation media: 0.775 %/brix
  acetic acid in fermentation media: 7.899 %/brix
[3]; tube A8, nisin A 11.87 μg/g
  Maltotriose in fermentation media: 0.305 %/brix
  ethanol in fermentation media: 0.071 %/brix
  formic acid in fermentation media: 0.233 %/brix
  fructose in fermentation media: 0.000 %/brix
  glucose in fermentation media: 25.537 %/brix
  glycerol in fermentation media: 0.301 %/brix
  lactic acid in fermentation media: 1.579 %/brix
  maltose in fermentation media: 0.739 %/brix
  acetic acid in fermentation media: 8.091 %/brix

## MSTKDFNLDLVSVSKKDSGASPRITSISLCTPGCKTGALMGCNMKTATCNCSIHVSN [nisin Z]
head/neck tumors
  effect on tumors (in words): can reduce tumorigenesis in mice
[2]; [11]
  91516 ABS 610f: 1.618
  Corrected ABS 610rs: 1.146
[2]; [12]
  91516 ABS 610f: 1.526
  Corrected ABS 610rs: 1.062
[2]; [13]
  91516 ABS 610f: 1.296
  Corrected ABS 610rs: 0.841
[2]; [14]
  91516 ABS 610f: 0.801
  Corrected ABS 610rs: 0.359
[2]; [15]
  91516 ABS 610f: 0.426
  Corrected ABS 610rs: 0.003
[2]; [16]
  91516 ABS 610f: 0.384
  Corrected ABS 610rs: 0.001
[2]; [17]
  91516 ABS 610f: 0.386
  Corrected ABS 610rs: 0.001
[3]; tube Z2, nisin Z 0.34 μg/g
  Maltotriose in fermentation media: 0.282 %/brix
  ethanol in fermentation media: 0.057 %/brix
  formic acid in fermentation media: 0.303 %/brix
  fructose in fermentation media: 0.000 %/brix
  glucose in fermentation media: 22.988 %/brix
  glycerol in fermentation media: 0.343 %/brix
  lactic acid in fermentation media: 6.742 %/brix
  maltose in fermentation media: 0.722 %/brix
  acetic acid in fermentation media: 8.273 %/brix
[3]; tube Z4, nisin Z 1.58 μg/g
  Maltotriose in fermentation media: 0.265 %/brix
  ethanol in fermentation media: 0.083 %/brix
  formic acid in fermentation media: 0.309 %/brix
  fructose in fermentation media: 0.000 %/brix
  glucose in fermentation media: 24.153 %/brix
  glycerol in fermentation media: 0.337 %/brix
  lactic acid in fermentation media: 5.081 %/brix
  maltose in fermentation media: 1.007 %/brix
  acetic acid in fermentation media: 8.247 %/brix
[3]; tube Z5, nisin Z 3.19 μg/g
  Maltotriose in fermentation media: 0.311 %/brix
  ethanol in fermentation media: 0.067 %/brix
  formic acid in fermentation media: 0.281 %/brix
  fructose in fermentation media: 0.000 %/brix
  glucose in fermentation media: 24.698 %/brix
  glycerol in fermentation media: 0.321 %/brix
  lactic acid in fermentation media: 2.995 %/brix
  maltose in fermentation media: 0.750 %/brix
  acetic acid in fermentation media: 8.026 %/brix
[3]; tube Z6, nisin Z 6.31 μg/g
  Maltotriose in fermentation media: 0.247 %/brix
  ethanol in fermentation media: 0.059 %/brix
  formic acid in fermentation media: 0.267 %/brix
  fructose in fermentation media: 0.000 %/brix
  glucose in fermentation media: 25.353 %/brix
  glycerol in fermentation media: 0.320 %/brix
  lactic acid in fermentation media: 1.351 %/brix
  maltose in fermentation media: 0.726 %/brix
  acetic acid in fermentation media: 7.969 %/brix
[3]; tube Z7, nisin Z 9.54 μg/g
  Maltotriose in fermentation media: 0.291 %/brix
  ethanol in fermentation media: 0.065 %/brix
  formic acid in fermentation media: 0.263 %/brix
  fructose in fermentation media: 0.000 %/brix
  glucose in fermentation media: 25.501 %/brix
  glycerol in fermentation media: 0.335 %/brix
  lactic acid in fermentation media: 1.431 %/brix
  maltose in fermentation media: 0.895 %/brix
  acetic acid in fermentation media: 8.026 %/brix
[3]; tube Z8, nisin Z 12.61 μg/g
  Maltotriose in fermentation media: 0.318 %/brix
  ethanol in fermentation media: 0.148 %/brix
  formic acid in fermentation media: 0.299 %/brix
  fructose in fermentation media: 0.000 %/brix
  glucose in fermentation media: 25.740 %/brix
  glycerol in fermentation media: 0.346 %/brix
  lactic acid in fermentation media: 1.652 %/brix
  maltose in fermentation media: 0.876 %/brix
  acetic acid in fermentation media: 8.261 %/brix
